For one test, the system named is H727 cells. The test is described as follows: Inhibition of KRas-mediated phosphorylation of ERK (Cisbio HTRF pERK), H727 cells. It is filed as cell-based. The conditions noted are these: Homo sapiens; for IC50: NCI-H727, 3 h, 3 hr compound incubation, Cisbio pERK HTRF; for inhibition at 0.1 µM: NCI-H727, single point at 100 nM, 3 hrs compound incubation.
The target in another test is KRas G12R (Homo sapiens, UniProt P01116, G12R). The test is described as follows: biochemical. Conditions: Binding to KRas (IC50 nM) G12R, TR-FRET displacement, KRas G12R. Background: In TR-FRET formats the signal depends on donor and acceptor labels being close together.
In a further test the test system is HCT116 cells. In words: Inhibition of KRas-mediated phosphorylation of ERK (Cisbio HTRF pERK), HCT116 cells. It is filed as cell-based. The conditions noted are these: Homo sapiens; for IC50: HCT-116, 3 h, 3 hr compound incubation, Cisbio pERK HTRF; for inhibition at 0.1 µM: HCT-116, single point at 100 nM, 3 hrs compound incubation.
Another test deals with H460 cells. The test is described as follows: Inhibition of KRas-mediated phosphorylation of ERK (Cisbio HTRF pERK), H460 cells. It is filed as cell-based. Conditions: Homo sapiens; for IC50: NCI-H460, 3 h, 3 hr compound incubation, Cisbio pERK HTRF; for inhibition at 0.1 µM: NCI-H460, single point at 100 nM, 3 hrs compound incubation.
Another test deals with A549 cells. In words: Inhibition of KRas-mediated phosphorylation of ERK (Cisbio HTRF pERK), A549 cells. Conditions: Homo sapiens; for IC50: A549, 3 h, 3 hr compound incubation, Cisbio pERK HTRF; for inhibition at 0.1 µM: single point at 100 nM, 3 hrs compound incubation. Type of test: cell-based.
The target in the next test is KRas G12D (Homo sapiens, UniProt P01116, G12D). The test is described as follows: biochemical. The conditions noted are these: Binding to KRas (IC50 nM) G12D, TR-FRET displacement, KRas G12D.
The test system of a further test is ASPC1 cells. The test is described as follows: Inhibition of KRas-mediated phosphorylation of ERK (Cisbio HTRF pERK), ASPC1 cells. It is filed as cell-based. Conditions: Homo sapiens, AsPC-1 cells; for IC50: ASPC1, 3 h, 3 hr compound incubation, Cisbio pERK HTRF; for inhibition at 0.1 µM: ASPC1, single point at 100 nM, 3 hrs compound incubation.
The target in another test is KRas G12V (Homo sapiens, UniProt P01116, G12V). In words: biochemical. Conditions: Binding to KRas (IC50 nM) G12V, TR-FRET displacement, KRas G12V.
Another test concerns H358 cells. The test is described as follows: Inhibition of KRas-mediated phosphorylation of ERK (Cisbio HTRF pERK), H358 cells. Type of test: cell-based. The conditions noted are these: Homo sapiens; for IC50: NCI-H358, 3 h, 3 hr compound incubation, Cisbio pERK HTRF; for inhibition at 0.1 µM: NCI-H358, single point at 100 nM, 3 hrs compound incubation.

Chain of KRas G12V (P01116 1-169 isoform P01116-2 G12V): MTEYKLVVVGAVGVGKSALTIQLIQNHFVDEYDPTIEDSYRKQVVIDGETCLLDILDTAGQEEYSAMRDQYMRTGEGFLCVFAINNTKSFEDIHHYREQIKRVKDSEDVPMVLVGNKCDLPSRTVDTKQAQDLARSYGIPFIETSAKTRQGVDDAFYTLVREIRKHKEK
Chain of KRas G12D (P01116 1-169 isoform P01116-2 G12D): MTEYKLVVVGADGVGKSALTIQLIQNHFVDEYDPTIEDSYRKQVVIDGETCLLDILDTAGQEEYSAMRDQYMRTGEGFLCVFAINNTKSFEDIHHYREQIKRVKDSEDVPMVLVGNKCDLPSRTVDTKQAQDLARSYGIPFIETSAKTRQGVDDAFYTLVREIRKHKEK
Chain of KRas G12R (P01116 1-169 isoform P01116-2 G12R): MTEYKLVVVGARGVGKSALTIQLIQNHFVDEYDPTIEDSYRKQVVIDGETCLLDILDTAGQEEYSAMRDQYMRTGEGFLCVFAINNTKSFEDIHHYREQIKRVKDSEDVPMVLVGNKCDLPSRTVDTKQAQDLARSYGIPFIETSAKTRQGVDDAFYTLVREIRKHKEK

By IC50 is commonly meant the concentration that inhibits the measured activity by half. Read a low IC50 as greater potency in that assay. As usually defined, the inhibition is the relative decrease from the control value, in per cent. With `O=S1(=O)NCC2(CCCN(c3nc(OC[C@@]45CCCN4C[C@H](F)C5)nc4c3CCN(c3cc(O)cc5ccc(F)c(F)c35)C4)C2)N1` (stereo partly drawn) [Example 447, 7-(7-(7,8-difluoro-3-hydroxynaphthalen-1-yl)-2-(((2R,7aS)-2-fluorohexahydro-1H-pyrrolizin-7a-yl)methoxy)-5,6,7,8-tetrahydropyrido[3,4-d]pyrimidin-4-yl)-2-thia-1,3,7-triazaspiro[4.5]decane 2,2-dioxide], the IC50 in the test on H727 cells was 179 nM; at KRas G12R it was < 2 nM; in the test on HCT116 cells, 338 nM; with H460 cells, 170 nM; with A549 cells, 373 nM; on KRas G12D, < 2 nM. Moreover, the IC50 in the test on ASPC1 cells is 202 nM; on KRas G12V, < 2 nM; in the test on H358 cells it was 44 nM. For the same compound, the inhibition at 0.1 µM worked out at 24% in the test with H727 cells; 28% in the test on HCT116 cells; 35% in the test with H460 cells; 28% in the test with A549 cells; 23% with ASPC1 cells; 61% in the test on H358 cells.
Regarding `Oc1cc(N2CCc3c(nc(OC[C@@]45CCCN4C[C@H](F)C5)nc3N3CCCC4(CCO4)C3)C2)c2c(Cl)c(F)ccc2c1` (stereo partly drawn) [Example 463, 5-chloro-6-fluoro-4-(2-(((2R,7aS)-2-fluorohexahydro-1H-pyrrolizin-7a-yl)methoxy)-4-(1-oxa-6-azaspiro[3.5]nonan-6-yl)-5,6-dihydropyrido[3,4-d]pyrimidin-7(8H)-yl)naphthalen-2-ol], the IC50 in the test on H727 cells was 597 nM; on KRas G12R it was < 2 nM; on KRas G12D, < 2 nM; with ASPC1 cells, 615 nM; at KRas G12V, < 2 nM. The inhibition at 0.1 µM with H727 cells was 20%; with HCT116 cells it was -3%; with H460 cells, 2%; in the test with A549 cells it was 18%; in the test with ASPC1 cells, 15%; in the test with H358 cells, -13%.
Take `CN(C)CC1(COc2nc3c(c(N4CCCn5nc(C(=O)N6CCOCC6)cc5C4)n2)CCN(c2cc(O)cc4ccc(F)c(Cl)c24)C3)CC1` [Example 468, (5-(7-(8-chloro-7-fluoro-3-hydroxynaphthalen-1-yl)-2-((l-((dimethylamino)methyl)cyclopropyl)methoxy)-5,6,7,8-tetrahydropyrido[3,4-d]pyrimidin-4-yl)-5,6,7,8-tetrahydro-4H-pyrazolo[1,5-a][1,4]diazepin-2-yl)(morpholino)methanone]: the half-inhibitory concentration (IC50) in the test with H727 cells came to 1770 nM; on KRas G12R, 10 nM; at KRas G12D, 2 nM; in the test on ASPC1 cells, 1940 nM; on KRas G12V it was 3 nM. Further, the inhibition at 0.1 µM in the test with HCT116 cells was -4%; in the test on H460 cells, -7%; in the test on A549 cells it was -12%; with H358 cells, -2%.
As for `CCc1c(F)ccc2cc(OC)cc(N3CCc4c(nc(OC[C@@]56CCCN5C[C@H](F)C6)nc4N4CCCn5nc(C(=O)N(C)C)cc5C4)C3)c12` [Example 469, 5-(7-(8-ethyl-7-fluoro-3-methoxynaphthalen-1-yl)-2-(((2R,7aS)-2-fluorohexahydro-1H-pyrrolizin-7a-yl)methoxy)-5,6,7,8-tetrahydropyrido[3,4-d]pyrimidin-4-yl)-N,N-dimethyl-5,6,7,8-tetrahydro-4H-pyrazolo[1,5-a][1,4]diazepine-2-carboxamide], the IC50 stood at 1980 nM in the test on H727 cells; 105 nM on KRas G12R; 8 nM at KRas G12D; 1200 nM with ASPC1 cells; 24 nM at KRas G12V. Further, the inhibition at 0.1 µM is 0% in the test with HCT116 cells, 2% with H460 cells, -1% in the test on A549 cells and 0% in the test with H358 cells.
In the case of `CCc1c(F)ccc2cc(O)cc(N3CCc4c(nc(OC[C@@]56CCCN5C[C@H](F)C6)nc4N4CCCCC(COCC(N)=O)C4)C3)c12` (stereo partly drawn) [Example 492, 2-((1-(7-(8-ethyl-7-fluoro-3-hydroxynaphthalen-1-yl)-2-(((2R,7aS)-2-fluorohexahydro-1H-pyrrolizin-7a-yl)methoxy)-5,6,7,8-tetrahydropyrido[3,4-d]pyrimidin-4-yl)azepan-3-yl)methoxy)acetamide], the IC50 stood at 3940 nM with H727 cells; 6 nM on KRas G12R; 11 nM at KRas G12D; 9040 nM in the test with ASPC1 cells; 7 nM at KRas G12V. Moreover, the inhibition at 0.1 µM in the test with H727 cells was 0%; in the test with HCT116 cells it was 23%; in the test on H460 cells, 6%; in the test on A549 cells, -24%; in the test on ASPC1 cells it was -11%; in the test on H358 cells, -3%.
Turning to `CCc1c(F)ccc2cc(O)cc(N3CCc4c(nc(OC[C@@]56CCCN5C[C@H](F)C6)nc4N4CCCn5nc(CS(=O)(=O)N(C)C)cc5C4)C3)c12` [Example 494, 1-(5-(7-(8-ethyl-7-fluoro-3-hydroxynaphthalen-1-yl)-2-(((2R,7aS)-2-fluorohexahydro-1H-pyrrolizin-7a-yl)methoxy)-5,6,7,8-tetrahydropyrido[3,4-d]pyrimidin-4-yl)-5,6,7,8-tetrahydro-4H-pyrazolo[1,5-a][1,4]diazepin-2-yl)-N,N-dimethylmethanesulfonamide], the IC50 in the test on H727 cells worked out at 2580 nM; on KRas G12R, 24 nM; at KRas G12D it was 12 nM; in the test on ASPC1 cells, 749 nM; at KRas G12V, 26 nM. The inhibition at 0.1 µM is 13% with H727 cells; 4% in the test on HCT116 cells; 4% with H460 cells; 14% in the test on A549 cells; -4% in the test on ASPC1 cells; 8% with H358 cells.
For `CCc1c(F)ccc2cc(O)cc(N3CCc4c(nc(OC[C@@]56CCCN5C[C@H](F)C6)nc4N4CCCn5nc(C(=O)N6CC7CC6CN7)cc5C4)C3)c12` (stereo partly drawn) [Example 502, 2,5-diazabicyclo[2.2.1]heptan-2-yl(5-(7-(8-ethyl-7-fluoro-3-hydroxynaphthalen-1-yl)-2-(((2R,7aS)-2-fluorohexahydro-1H-pyrrolizin-7a-yl)methoxy)-5,6,7,8-tetrahydropyrido[3,4-d]pyrimidin-4-yl)-5,6,7,8-tetrahydro-4H-pyrazolo[1,5-a][1,4]diazepin-2-yl)methanone], the IC50 with H727 cells was 1310 nM; on KRas G12R it was 3 nM; at KRas G12D, < 2 nM; in the test on ASPC1 cells, 124 nM; at KRas G12V, < 2 nM. Besides, the inhibition at 0.1 µM with H727 cells stood at 7%; with HCT116 cells it was 8%; in the test with H460 cells, 7%; with A549 cells it was 11%; with ASPC1 cells, 22%; in the test on H358 cells, 5%.
In the case of `CCc1c(F)ccc2cc(O)cc(N3CCc4c(nc(OCC5(CN(C)C)CC5)nc4N4CCOC(c5n[nH]c(CO)n5)C4)C3)c12` (centres unmarked) [Example 602, 4-(2-((1-((dimethylamino)methyl)cyclopropyl)methoxy)-4-(2-(5-(hydroxymethyl)-1H-1,2,4-triazol-3-yl)morpholino)-5,8-dihydropyrido[3,4-d]pyrimidin-7(6H)-yl)-5-ethyl-6-fluoronaphthalen-2-ol], the IC50 with H727 cells is > 10000 nM; at KRas G12R it was 3 nM; in the test on HCT116 cells, > 10000 nM; in the test on H460 cells, 7580 nM; in the test with A549 cells, > 10000 nM; at KRas G12D, 44 nM. Moreover, the IC50 in the test on ASPC1 cells was > 10000 nM; at KRas G12V, 6 nM; in the test with H358 cells, 907 nM.
